From patent US20100129470A1, “METHOD OF TREATING BRAIN CANCER” (Myriad Pharmaceuticals, Incorporated, priority 2007, published 2010) come the findings set out here.

“Also recorded” adds a separate entry of the source. Counter-ions that a name gives are not always drawn.

The test system of this data set is Subjects with Refractory Solid Tumors. The experiment in a line: Phase I clinical trial: open-label, dose-escalating, multiple-dose study of weekly intravenous administration. The data set is classed as in vivo. The conditions noted are these: human subjects. On the procedure:
An open-label, dose-escalating, multiple-dose study to define the safety, tolerability and phamacokinetics of weekly intravenous administration of (4-Methoxy-phenyl)-methyl-(2-methyl-quinazolin-4-yl)-amine hydrochloride was performed. A dosing schedule (each 4 week cycle) was performed for (4-Methoxy-phenyl)-methyl-(2-methyl-quinazolin-4-yl)-amine hydrochloride weekly for 3 weeks with no infusion on the fourth week of each cycle. Subjects with refractory solid tumors were enrolled in cohorts of 3. During Cycle 1, subjects were hospitalized during each infusion of (4-Methoxy-phenyl)-methyl-(2-methyl-quinazolin-4-yl)-amine hydrochloride and remained for observation and safety evaluation for approximately 24 hours following the end of the infusion. All subject had continuous telemetry for 2 hours prior to infusion, for 1-2 hour infusion and for 3 hours after the end of the infusion. Any clinically significant electrocardiographic (ECG) wave form abnormality was recorded and prolongation of the monitoring period extended at the discretion of the principal investigator.
Electrocardiograms were obtrained prior to starting the infusion and within 30 minutes of the end of infusion for each infusino of the first cycle. Electrocardiograms on Day 1 were obtained in triplicate 5 minutes apart.
Neurocognitive assessments were made by administration of the Mini-Mental State Examination (MMSE), the Hopkins Verbal Learning and timed Grooved Pegboard tests before administration of the intravenous infusion and approximately 24 hours of the infusion at each weekly administration of the first cycle.
On days 1, 8, and 15 of each cycle, vital signs were obtained prior to the first dose, at 15, 30, and 60 minutes after the initiation of the infusion, and at 0.5, 1, 1.5, 2, and 4 hours after the end of the intravenous infusion. Vital signs at all time points beyond the start of the intravenous infusion included heart rate, blood pressure and respirations. Temperature ws measured at the end of the infusion and 4 hours later.
Individual subjects were allowed to continue on repeated weekly×3 administrations every 28 days with no dose increase provided there was no unacceptable toxicity or disease progression.
Tumor response was evaluated by response evaluation criteria in solid tumors (RECIST) criteria. To prevent sever hypersensitivity reactions due to Cremophor® EL, subjects were premedicated with oral dexamethasone (20 mg) administered approximately 12 and 6 hours before the intrvenous infusion with (4-Methoxy-phenyl)-methyl-(2-methyl-quinazolin-4-yl)-amine hydrochloride, diphenhydramine (50 mg) or its equivalent administered intravenously 30-60 minutes before (4-Methoxy-phenyl)-methyl-(2-methyl-quinazolin-4-yl)-amine hydrochloride, and cimetidine (300 mg) or ranitidine (50 mg) administered intravenously 30-60 minutes before (4-Methoxy-phenyl)-methyl-(2-methyl-quinazolin-4-yl)-amine hydrochloride.

[1] abbreviates: weekly i.v. infusion, 0.3-3.3 mg/m^2.

On to `COc1ccc(N(C)c2nc(C)nc3ccccc23)cc1` [(4-Methoxy-phenyl)-methyl-(2-methyl-quinazolin-4-yl)-amine hydrochloride], for which the “effects on cardiac conduction (PR, QRS or QTc)” value (ECG, weekly i.v. infusion, 0.3-3.3 mg/m^2) is given as “no significant effects”. Where the note is “weekly i.v. administration, various dosages, hydrochloride”, the safety and tolerability result is “safe and well tolerated; also recorded: safe and tolerable”. Also, under “weekly i.v. infusion for 3 weeks of each 4 week cycle, 0.3-3.3 mg/m^2”, the peripheral cytotoxicity entry is “no evidence of cytotoxity peripherally”. Also, under setting [1], the bradycardia result is given as “occasional episodes of bradycardia”; the dose limiting toxicity result is recorded as “vascular in nature, manifested by an acute coronary syndrome”; the intratumor bleeding result is “incidences of intratumor bleeding”; the systolic blood pressure entry is “dose-related increase”.
